From publication PMC4854315, “Discovery of a novel allosteric inhibitor-binding site in ERK5: comparison with the canonical kinase hinge ATP-binding site” (Acta Crystallographica. Section D, Structural Biology, 2016)

What was measured:
Assay in all cases: Z'-LYTE kinase panel
Type in all cases: biochemical
CSNK1G1 (CK1 gamma 1) = target: T1, CSNK1G1 (CK1 gamma 1) (Homo sapiens, UniProt Q9HCP0)
T1 construct: purchased ThermoFisher (SelectScreen, Z'-LYTE)
Procedure, shortened: (§1)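 Standard Z′-LYTE protocol applied. Compound fixed at 10 µM. Output: % inhibition. Panel size 225 kinases.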

DCAMKL2 (DCK2) = target: T2, DCAMKL2 (DCK2) (Homo sapiens, UniProt Q8N568)
T2 construct: purchased ThermoFisher (SelectScreen, Z'-LYTE)
T2 sequence (Q8N568 1-766): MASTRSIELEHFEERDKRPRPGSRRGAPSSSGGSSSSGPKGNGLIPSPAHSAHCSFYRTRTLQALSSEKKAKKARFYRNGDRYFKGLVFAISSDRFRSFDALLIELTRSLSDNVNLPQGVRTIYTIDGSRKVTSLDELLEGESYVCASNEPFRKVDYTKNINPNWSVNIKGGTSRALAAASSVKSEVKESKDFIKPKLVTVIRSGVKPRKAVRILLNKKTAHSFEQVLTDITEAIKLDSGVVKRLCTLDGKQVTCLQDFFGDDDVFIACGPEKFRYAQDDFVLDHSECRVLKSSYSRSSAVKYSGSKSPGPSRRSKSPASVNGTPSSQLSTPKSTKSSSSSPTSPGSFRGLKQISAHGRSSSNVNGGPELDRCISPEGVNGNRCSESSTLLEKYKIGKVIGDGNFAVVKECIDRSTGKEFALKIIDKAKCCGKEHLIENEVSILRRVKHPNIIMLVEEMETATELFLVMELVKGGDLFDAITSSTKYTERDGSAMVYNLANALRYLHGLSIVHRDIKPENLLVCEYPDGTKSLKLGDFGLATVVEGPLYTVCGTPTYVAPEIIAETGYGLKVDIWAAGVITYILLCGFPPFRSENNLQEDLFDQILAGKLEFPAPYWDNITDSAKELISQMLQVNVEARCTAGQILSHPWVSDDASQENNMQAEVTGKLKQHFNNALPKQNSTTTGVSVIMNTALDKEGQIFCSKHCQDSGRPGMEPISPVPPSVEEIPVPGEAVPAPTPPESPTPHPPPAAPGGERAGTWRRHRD
Procedure, shortened: as §1

MST4 = target: T3, MST4 (Homo sapiens, UniProt Q9P289)
T3 construct: purchased ThermoFisher (SelectScreen, Z'-LYTE)
T3 sequence (Q9P289 whole entry): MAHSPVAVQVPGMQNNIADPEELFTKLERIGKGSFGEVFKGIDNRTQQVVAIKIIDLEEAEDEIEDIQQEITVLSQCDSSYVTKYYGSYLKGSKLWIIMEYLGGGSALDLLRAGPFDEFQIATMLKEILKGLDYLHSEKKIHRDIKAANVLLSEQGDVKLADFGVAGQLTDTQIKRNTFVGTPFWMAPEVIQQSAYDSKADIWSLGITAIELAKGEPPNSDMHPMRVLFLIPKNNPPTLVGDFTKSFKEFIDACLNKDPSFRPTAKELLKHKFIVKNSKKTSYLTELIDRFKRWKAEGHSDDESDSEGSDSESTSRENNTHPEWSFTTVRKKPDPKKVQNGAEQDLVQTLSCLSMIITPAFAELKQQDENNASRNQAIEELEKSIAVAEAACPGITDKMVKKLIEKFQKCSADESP
Procedure, shortened: as §1

NEK1 = target: T4, NEK1 (Homo sapiens, UniProt Q96PY6)
T4 construct: purchased ThermoFisher (SelectScreen, Z'-LYTE)
T4 sequence (Q96PY6 1-1258): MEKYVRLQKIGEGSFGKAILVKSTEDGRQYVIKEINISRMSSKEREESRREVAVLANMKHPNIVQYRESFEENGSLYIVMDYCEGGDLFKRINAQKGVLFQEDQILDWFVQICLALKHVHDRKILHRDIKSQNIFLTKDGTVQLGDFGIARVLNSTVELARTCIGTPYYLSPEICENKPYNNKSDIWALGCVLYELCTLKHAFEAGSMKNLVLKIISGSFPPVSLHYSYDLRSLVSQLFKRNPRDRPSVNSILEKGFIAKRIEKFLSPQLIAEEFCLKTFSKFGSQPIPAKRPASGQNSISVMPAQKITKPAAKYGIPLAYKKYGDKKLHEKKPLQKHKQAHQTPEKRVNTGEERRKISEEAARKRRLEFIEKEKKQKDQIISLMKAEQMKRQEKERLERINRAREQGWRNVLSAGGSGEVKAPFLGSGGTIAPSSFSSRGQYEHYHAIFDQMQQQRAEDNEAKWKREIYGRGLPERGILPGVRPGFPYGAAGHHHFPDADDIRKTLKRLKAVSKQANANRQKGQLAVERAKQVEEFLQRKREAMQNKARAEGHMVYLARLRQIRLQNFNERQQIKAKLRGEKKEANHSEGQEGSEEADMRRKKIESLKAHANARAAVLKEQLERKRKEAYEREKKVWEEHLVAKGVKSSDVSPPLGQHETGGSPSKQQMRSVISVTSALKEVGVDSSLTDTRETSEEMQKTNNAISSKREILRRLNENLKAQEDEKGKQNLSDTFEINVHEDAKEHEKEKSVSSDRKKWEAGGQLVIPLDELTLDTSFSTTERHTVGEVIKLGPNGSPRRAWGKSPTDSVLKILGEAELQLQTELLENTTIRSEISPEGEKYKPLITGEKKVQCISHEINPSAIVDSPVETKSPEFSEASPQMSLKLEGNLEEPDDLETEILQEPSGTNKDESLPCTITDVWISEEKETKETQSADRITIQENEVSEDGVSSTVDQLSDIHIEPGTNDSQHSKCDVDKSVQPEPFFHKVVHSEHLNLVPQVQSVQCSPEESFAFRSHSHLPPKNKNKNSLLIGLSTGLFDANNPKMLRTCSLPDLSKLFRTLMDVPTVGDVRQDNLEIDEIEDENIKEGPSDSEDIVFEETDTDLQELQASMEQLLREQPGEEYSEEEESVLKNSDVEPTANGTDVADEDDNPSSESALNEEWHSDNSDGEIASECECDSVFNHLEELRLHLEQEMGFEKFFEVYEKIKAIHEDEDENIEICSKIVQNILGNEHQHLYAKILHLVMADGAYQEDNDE
Procedure, shortened: as §1

PRKCB2 (PKC beta II) = target: T5, PRKCB2 (PKC beta II) (Homo sapiens, UniProt P05771)
T5 construct: purchased ThermoFisher (SelectScreen, Z'-LYTE)
T5 sequence (P05771 1-673 isoform P05771-2): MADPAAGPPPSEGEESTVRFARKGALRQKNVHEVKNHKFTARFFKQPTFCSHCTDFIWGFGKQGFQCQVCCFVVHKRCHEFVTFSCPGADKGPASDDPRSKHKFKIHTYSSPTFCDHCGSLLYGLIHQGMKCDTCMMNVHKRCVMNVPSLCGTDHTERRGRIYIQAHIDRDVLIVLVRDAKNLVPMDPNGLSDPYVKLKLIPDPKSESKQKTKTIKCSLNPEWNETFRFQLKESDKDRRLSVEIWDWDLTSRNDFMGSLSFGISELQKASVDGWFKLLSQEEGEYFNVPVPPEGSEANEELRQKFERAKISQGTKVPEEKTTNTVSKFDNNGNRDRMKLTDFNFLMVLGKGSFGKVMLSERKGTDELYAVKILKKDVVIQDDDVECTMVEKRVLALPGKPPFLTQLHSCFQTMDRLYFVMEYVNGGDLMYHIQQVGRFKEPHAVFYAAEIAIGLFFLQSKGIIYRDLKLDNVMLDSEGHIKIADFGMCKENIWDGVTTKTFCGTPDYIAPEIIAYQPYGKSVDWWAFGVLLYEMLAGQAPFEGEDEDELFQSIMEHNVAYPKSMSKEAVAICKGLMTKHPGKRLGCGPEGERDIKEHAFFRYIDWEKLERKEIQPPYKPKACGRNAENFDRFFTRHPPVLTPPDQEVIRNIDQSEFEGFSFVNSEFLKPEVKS
Procedure, shortened: as §1

PRKX = target: T6, PRKX (Homo sapiens, UniProt P51817)
T6 construct: purchased ThermoFisher (SelectScreen, Z'-LYTE)
T6 sequence (P51817 1-358): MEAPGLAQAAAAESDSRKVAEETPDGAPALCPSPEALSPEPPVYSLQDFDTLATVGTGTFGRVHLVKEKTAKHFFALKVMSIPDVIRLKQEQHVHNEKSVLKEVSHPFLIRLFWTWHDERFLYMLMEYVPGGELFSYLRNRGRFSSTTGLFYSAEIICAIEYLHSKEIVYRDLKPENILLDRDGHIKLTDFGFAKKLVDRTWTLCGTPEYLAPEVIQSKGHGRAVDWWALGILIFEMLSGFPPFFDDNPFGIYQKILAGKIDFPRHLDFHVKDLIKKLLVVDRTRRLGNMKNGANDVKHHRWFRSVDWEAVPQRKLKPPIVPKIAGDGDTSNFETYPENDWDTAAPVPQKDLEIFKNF
Procedure, shortened: as §1

T1 sequence (Q9HCP0 whole entry): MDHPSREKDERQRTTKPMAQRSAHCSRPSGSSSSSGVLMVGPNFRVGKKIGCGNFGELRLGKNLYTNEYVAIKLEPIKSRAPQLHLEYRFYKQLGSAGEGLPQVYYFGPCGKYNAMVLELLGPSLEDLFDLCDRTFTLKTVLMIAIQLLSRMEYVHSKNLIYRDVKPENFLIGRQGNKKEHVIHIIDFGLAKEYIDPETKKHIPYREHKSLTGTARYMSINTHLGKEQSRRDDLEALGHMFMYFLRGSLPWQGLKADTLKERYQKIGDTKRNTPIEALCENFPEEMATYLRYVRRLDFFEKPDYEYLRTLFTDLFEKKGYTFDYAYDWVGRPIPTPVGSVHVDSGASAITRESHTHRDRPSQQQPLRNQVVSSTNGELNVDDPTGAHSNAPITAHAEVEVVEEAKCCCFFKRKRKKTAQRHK

Compound: Cc1ncc(-c2nc(Nc3ccc(C(=O)NCCN4CCCCC4)cc3)ncc2F)n1C(C)C [Compound 3]
- inhibition at 10 µM (CSNK1G1 (CK1 gamma 1)): 70%
- inhibition at 10 µM (DCAMKL2 (DCK2)): 62%
- inhibition at 10 µM (MST4): 75%
- inhibition at 10 µM (NEK1): 6.39%
- inhibition at 10 µM (PRKCB2 (PKC beta II)): 89%
- inhibition at 10 µM (PRKX): 84%

Compound: Cc1cc(Nc2nc(N)nn2C(=O)NC(C)C)ccc1Cl [Compound 5]
- inhibition at 10 µM (CSNK1G1 (CK1 gamma 1)): 8%
- inhibition at 10 µM (DCAMKL2 (DCK2)): -1.9%
- inhibition at 10 µM (MST4): 43%
- inhibition at 10 µM (NEK1): 21%
- inhibition at 10 µM (PRKCB2 (PKC beta II)): -12%
- inhibition at 10 µM (PRKX): 8.43%

Compound: XMD8-92 [Compound 2, reference compound]
- CSNK1G1 (CK1 gamma 1) % Inhibition (CSNK1G1 (CK1 gamma 1); 10 µM compound, ATP Km app): 24%
- DCAMKL2 (DCK2) % Inhibition (DCAMKL2 (DCK2); 10 µM compound, ATP Km app): 61%
- MST4 % Inhibition (MST4; 10 µM compound, ATP Km app): 15%
- NEK1 % Inhibition (NEK1; 10 µM compound, ATP Km app): -9%
- PRKCB2 (PKC beta II) % Inhibition (PRKCB2 (PKC beta II); 10 µM compound, ATP Km app): 38%
- PRKX % Inhibition (PRKX; 10 µM compound, ATP Km app): 25%
